# Results as given in PubChem BioAssay AID2202554 (NIEHS Division of Translational Toxicology (DTT)).
# Results filed as inconclusive are left out. The source made the active and inactive calls. No rule for the calls is given here.
# System: S. typhimurium/E. coli reverse mutation, colony counts
# Assay: Bacterial reverse mutation test (aka Ames test) summary data;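 also: His-minus Salmonella and trp-minus E. coli WP2 uvrA pKM101 with or without liver S9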
# Description: The Ames test uses bacteria cultures to determine whether a substance causes mutations. Because there is a significant overlap between substances that are mutagens and those that are carcinogens, a quick and inexpensive mutagenicity test is useful as an initial screening for possible carcinogens.
# The Ames test relies on specific strains of S. typhimurium, namely: TA97, TA98, TA100, TA102, TA104, TA1535, TA1537, and TA1538. In addition to the S. typhimurium strains, the test may also use the E. coli strain WP2 uvrA pKM101.
# Each of the bacterial strains has a mutation that prevents it from making an amino acid (a protein building block) required for normal cell growth. The S. typhimurium strains are unable to manufacture histidine; the E. coli strain cannot manufacture tryptophan. The tester strains will not be able to grow without amino acid supplementation, unless the mutated gene is changed back to the correct DNA sequence (reversion mutation). Being exposed to a mutagenic chemical increases the chance that the mutant gene will be restored to the correct sequence, which allows the bacteria to grow and form colonies. Each substance under study is tested in a variety of bacterial strains with different types of altered DNA sequences in order to provide a comprehensive assessment of the mutagenic potential of the substance.
# Some non-mutagenic substances are converted to mutagenic substances when metabolized by the liver; in contrast, some substances that are mutagenic in their natural state are converted to non-mutagens by the liver. All substances are tested in their natural state, as well as in the presence of liver enzymes that can produce this metabolic conversion of the test substance. Extracts of rat, hamster, or mouse liver enzymes (S9 mix) are used for this purpose.
# D. Preparing the Cultures
# Multiple sets of cultures are prepared using a range of doses and different amounts of liver enzymes for each bacterial strain. Each culture is prepared in a test tube containing a suspension of one bacterial strain and either an S9 mix or plain buffer solution. Then the test substance is added. Negative control cultures are established using the same ingredients, but without the test substance. Positive control cultures are established using known mutagens active in particular bacterial strains and metabolic conditions (for example, with or without S9). Once prepared, each culture is incubated for 20 minutes at 37° C. Agar is then added to the cultures, and the contents of each tube are poured onto the surface of a Petri dish that was prepared with standard bacterial culture medium. The plates are then incubated, usually for two days.
# Depending on the substance to be tested, the exposure and incubation processes may be modified. These variations include:
# - Elimination of the 20-minute incubation period in a test tube prior to plating (this method is referred to as the standard plate incorporation method)
# - Enzymatic reduction of azo and diazo substances (this process occurs in the intestine or liver of animals) using a chemical called flavin mononucleotide (FMN) or intestinal bacterial preparations from rats
# - Testing in sealed chambers such as desiccators for volatile and gaseous chemicals.
# To validate the test, a trained investigator compares the number of colonies on the chemical-treated plates to the number of colonies on the negative control plates. If the substance under test is mutagenic, the chemical-treated plates will have a much greater number of colonies than the negative control plates.
# - A positive response is a reproducible, dose-related increase in mutant colonies in any single strain, with or without the addition of S9 metabolic enzymes. While there is no minimum percentage of increase required for a result to be considered positive, a twofold increase in mutant colonies in a treated plate is usually considered to be a positive (mutagenic) response.
# […]
row,Compound,outcome
1,ClCc1ccccn1,active; positive
2,O=C(NO)c1ccccc1,active; positive
3,CCN(CC)N=O,active; positive
4,CCC(C)c1ccccc1O (stereo not given),inactive; negative
5,CCc1cccc(C)c1N,inactive; negative
6,c1ccc(Nc2ccc(Nc3ccccc3)cc2)cc1,active; positive
7,CCNc1cccc(O)c1,active; positive
8,CCCCCNCCCCC,inactive; negative
9,CCCCCCCCCCCCCCCCN,inactive; negative
10,Cc1ccc2c(ccc3ccccc32)c1,active; positive
11,O=C(O)c1ccccc1Cl,inactive; negative
12,C1COC1,active; positive
13,COc1cc(N)ccc1C,active; positive
14,CC(O)CO (stereo not given),inactive; negative
15,Oc1ccc(Cl)c(Cl)c1,inactive; negative
16,Cc1ccccc1Br,inactive; negative
17,CCCCCCCCCCCC(C)=O,inactive; negative
18,Cc1ccc2ncccc2c1,active; positive
19,O=[N+]([O-])c1ccc(Cl)c(Cl)c1Cl,active; positive
20,Cc1cn([C@H]2C=C[C@@H](CO)O2)c(=O)[nH]c1=O,active; weakly positive
21,CC[n+]1c(-c2ccccc2)c2cc(N)ccc2c2ccc(N)cc21,active; positive
22,OC(CCl)CCl,active; positive
23,C=CC(C)=O,active; positive
24,ClC1=C(Cl)[C@]2(Cl)[C@@H]3[C@@H]4C[C@@H]([C@H]5O[C@@H]45)[C@@H]3[C@@]1(Cl)C2(Cl)Cl,inactive; negative
25,Cc1ccc(S(=O)(=O)Oc2ccc(N=Nc3ccc(-c4ccc(N=Nc5c(O)ccc6cc(S(=O)(=O)O)cc(S(=O)(=O)O)c56)c(C)c4)cc3C)cc2)cc1,active; positive

row,Compound,outcome
1,Cc1cscn1,inactive; negative
2,COc1c2ccoc2cc2oc(=O)ccc12,active; positive
3,Clc1cccc(Cl)c1,inactive; negative
4,NC(=O)CC(N)=O,inactive; negative
5,S=[Se],active; positive
6,COC(=O)C1=C(C)NC(C)=C(C(=O)OC)C1c1ccccc1[N+](=O)[O-],inactive; negative
7,C=CC(C)C#N (stereo not given),active; weakly positive
8,CCOP(=S)(OCC)SCSC(C)(C)C,inactive; negative
9,COC(=O)c1ccccc1N,inactive; negative
10,N#CC(O)c1ccccc1 (stereo not given),inactive; negative
11,O=C(O)c1ccc(O)cc1O,inactive; negative
12,O=S1(=O)CC=CC1,inactive; negative
13,Clc1cccc2ccccc12,active; weakly positive
14,CC(C)COC(=O)c1ccccc1N,inactive; negative
15,CN(C)[C@@H]1C(=O)C(C(N)=O)=C(O)[C@@]2(O)C(=O)C3=C(O)c4c(O)cccc4[C@@](C)(O)[C@H]3[C@H](O)[C@@H]12,inactive; negative
16,Nc1ccccc1Cl,inactive; negative
17,CCOc1ccccc1C(N)=O,inactive; negative
18,Cc1cc(=O)oc2cc(O)ccc12,inactive; negative
19,CCCCOC(C)=O,inactive; negative
20,Cn1cnc([N+](=O)[O-])c1Sc1ncnc2nc[nH]c12,active; positive
21,COc1cc(-c2ccc(N=C=O)c(OC)c2)ccc1N=C=O,active; positive
22,Cc1occc(=O)c1O,active; weakly positive
23,O=C1c2ccccc2-c2ccc3c4ccc5c6c(ccc(c7ccc1c2c73)c64)C(=O)c1ccccc1-5,active; weakly positive
24,Cl,inactive; negative
25,CCN(CC)c1ccc([N+](=O)[O-])cc1,active; positive

row,Compound,outcome
1,CCSCCC(N)C(=O)O (stereo not given),inactive; negative
2,O=C(O)c1cc(N=Nc2ccc([N+](=O)[O-])cc2)ccc1O,active; positive
3,CC(C)(C)OC=O,inactive; negative
4,Cc1cc(O)ccc1Cl,inactive; negative
5,O=c1c2ccccc2c(=O)c2c1ccc1c2[nH]c2c3c(=O)c4ccccc4c(=O)c3c3[nH]c4c(ccc5c(=O)c6ccccc6c(=O)c54)c3c12,inactive; negative
6,N#Cc1ccccc1,inactive; negative
7,OCC(O)CI (stereo not given),active; positive
8,CCCCCN,inactive; negative
9,ONc1ccccc1,active; positive
10,Cc1ccccc1C=O,inactive; negative
11,CCC[N+](CCC)(CCC)CCC,active; weakly positive
12,CC(=O)CC(C)C,inactive; negative
13,O=Nc1ccc(Nc2ccccc2)cc1,active; weakly positive
14,O=C(O)c1cc(Cl)ccc1Cl,inactive; negative
15,C=C(C)[C@H]1CC=C(C)CC1,inactive; negative
16,BrC(Br)C(Br)(Br)Br,inactive; negative
17,C=CCOC(=O)COCCC(C)C,inactive; negative
18,CCOc1ccc(N)cc1,active; positive
19,O=Cc1ccccc1C=O,active; positive
20,O=c1c2ccccc2c(=O)c2c1ccc1[nH]c3c(ccc4c(=O)c5ccccc5c(=O)c43)[nH]c12,inactive; negative
21,CN(C)CCN(Cc1ccccc1)c1ccccc1,inactive; negative
22,COCOC,inactive; negative
23,CCCOC(=O)c1cc(O)c(O)c(O)c1,inactive; negative
24,CCCCOCCOCCOCc1cc2c(cc1CCC)OCO2,inactive; negative
25,C=CC1CC=CCC1 (stereo not given),inactive; negative

row,Compound,outcome
1,O=[N+]([O-])c1ccc(O)c([N+](=O)[O-])c1,inactive; negative
2,Nc1cc(Cl)cc(C(=O)O)c1Cl,active; positive
3,CC(C)(C)OO,active; positive
4,CCOC(=O)c1ccccc1C(=O)OCC,inactive; negative
5,O=S(=O)(O)c1ccc(N=Nc2cc(S(=O)(=O)O)c3ccccc3c2O)c2ccccc12,inactive; negative
6,CC(C)CN,inactive; negative
7,COc1cc([N+](=O)[O-])ccc1N,active; positive
8,CC(C)(C)N,inactive; negative
9,CC(=O)Nc1ccc(N)cc1,active; positive
10,CC(=O)OO,inactive; negative
11,[Cd+2].[Cl-].[Cl-],inactive; negative
12,CC(C)CO,inactive; negative
13,Nc1ccccc1,inactive; negative
14,c1ccc(-c2ccccc2)cc1,inactive; negative
15,CC(=O)O,inactive; negative
16,O.O.O.O.O.O.O=[N+]([O-])[O-].O=[N+]([O-])[O-].O=[N+]([O-])[O-].[La+3],inactive; negative
17,O=C(O)CC(O)(CC(=O)OO)C(=O)O (stereo not given),inactive; negative
18,CN(C)C(=O)Oc1ccc[n+](C)c1,inactive; negative
19,Clc1nc2ccccc2nc1Cl,inactive; negative
20,CCCl,active; positive
21,CN(C)C=O,inactive; negative
22,C=CC(=C)CCC=C(C)C,inactive; negative
23,CCCC(=O)Cl,active; weakly positive
24,CCc1ccc(N)cc1,inactive; negative
25,C=CC1(C)OC(=O)N(c2cc(Cl)cc(Cl)c2)C1=O (stereo not given),inactive; negative
